Test results: patent US5466716A, “Liposomal trimethylsphingosine” (The Biomembrane Institute, priority 1994, dated 1995)
“Also recorded” adds a separate entry of the source.

How the values were obtained:
[1] = test system: human lung cancer cell line LU-65; test: tritiated thymidine incorporation, tumor cell growth (LU-65); format: cell-based; details: LU-65, FIG. 2B
From the text: FIGS. 2A-2C show the effect of sphingosine derivatives on human tumor cell growth. In FIG. 2A the growth of human colonic cancer cell line COLO-205 was monitored. In FIG. 2B the growth of human lung cancer cell line LU-65 was monitored. In FIG. 2C the growth of human gastric cancer cell line MKN-74 was monitored. In each Figure the ordinate represents the percent inhibition of tritiated thymidine incorporation, the solid circles represent sphingosine, the open circles represent N,N-dimethylsphingosine and the triangles represent N,N,N-trimethylsphingosine.
An in vitro assay relying on tritiated thymidine incorporation can be used to ascertain the effect of various compounds on cell proliferation. Briefly, tumor cells are seeded in flat bottom 96 well plates (Corning, N.Y.) at a concentration of 2×10^4 cells per well. The cells are cultured for 2 days in DMEM containing various concentrations of sphingoid, which is added as a PBS solution. The medium then is supplemented with tritiated thymidine at a concentration of 0.5 μCi per well. Following a six hour incubation the cells are collected using the PHD Cell Harvester (Cambridge Technology, Cambridge, Mass.) and amounts of incorporated radioactivity are determined after adding a suitable cell lysing agent and scintillation cocktail, such as ScintiVerse BD (Fisher Scientific, Fairlawn, Calif.) which performs both functions. […]

[2] = test system: neutrophils; test: neutrophil superoxide production (cytochrome C reduction); format: cell-based, human
Experimental: FIGS. 13A and 13B depict the effect of various reagents on neutrophil function. In FIG. 13A, the effect of TMS on O2 production was determined by monitoring the superoxide-mediated reduction of cytochrome C (Clifford, Meth. Enz., 105, 393, 1981) by 10^6 neutrophils/ml at OD550 and an extinction coefficient of 21000/M/cm in a Beckman DU-50 spectrophotometer. The cells were preincubated for 10 minutes at room temperature with the noted concentrations of TMS prior to stimulation with 1 μM PMA (time 0).
Human neutrophils were obtained from normal male adults. Heparinized peripheral blood was mixed gently with an equal amount of 1% dextran solution in PBS in a 60 ml injection syringe. The mixture was allowed to sit vertically for 60 to 90 minutes at 37° C. The upper phase, which is rich in white blood cells, was mounted gently on the same volume of Ficoll-Paque (Pharmacia LKB, Uppsala, Sweden) in Falcon 2095 plastic test tubes (Becton Dickinson Labware, Lincoln Park, N.J.). Centrifugation at 450 g for 30 min at 4° C. brought the neutrophils to the bottom of the tubes. The upper phase and interface, which contains lymphocytes, were removed carefully by aspiration.
Superoxide production by neutrophils was quantitated by monitoring superoxide-mediated reduction of cytochrome C (Clifford, supra, in which the reduction is manifest as an increase in absorbance at 550 nm at an extinction coefficient of 21000/M/cm). Measurements were carried out with a Beckman DU-50 spectrophotometer at 37° C. using ≈1×10^6 neutrophils per ml. The cells were allowed to equilibrate for 10 min with TMS, or other effectors, prior to addition of 1 μM of PMA.

[3] = test system: HUVEC's; test: morphologic damage to endothelial cells (HUVEC's); format: cell-based, human; details: staurosporine 2 μM, calphostin C 5 μM
Experimental: A characteristic of neutrophils is the ability to adhere to activiated EC's and to migrate through the EC monolayer into the vascular or extravascular matrix. The effect of TMS on neutrophil interactions with EC's and their subsequent trans-endothelial migration thereof can be monitored in vitro using human umbilical endothelial cells (HUVEC's) (Luscinskas et al., J. Imm., 146, 1617, 1991). Neutrophils are added to a HUVEC monolayer and neutrophil-HUVEC interactions are assessed microscopically following fixation, embedding and staining of monolayer sections.
HUVEC's and culture media were purchased from Cell Systems (Kirkland, Wash.). The cells were maintained and cultured as described in Luscinskas et al., supra, with some modifications. Briefly, HUVEC's were maintained in 10 ml tissue culture flasks on a collagen type I bed obtained from rat tail (Upstate Biotechnology Inc, Lake Placid, N.Y.) with CS-complete medium, CS-growth factor and CS-AF-1 (Cell Systems). Cells became confluent within 2 to 4 days when incubated in 5% CO2 at 37° C.
The HUVEC monolayer in 24-well tissue culture plates were washed with M199 without FCS, then incubated with 1 ml/well of IL-1β (Boehringer Mannheim Biochemical Products, Indianapolis, Ind.) dissolved in M199 with 1% heat-inactivated FCS (HIFCS) at 10 U/ml. The plates were incubated at 37° C., 5% CO2 for 4 hr then washed gently with 1 ml of M199. […]

Compound | inhibition of tumor cell growth [1] | inhibition of oxyradical production ([2]; 15 μM, FIG. 13B) | inhibition of superoxide production ([2]; 20 μM) | neutrophil superoxide production ([2]; Example 5) | inhibition of superoxide production ([2]; dose-dependence, FIGS. 13A and 13B) | morphologic damage to EC's [3]
CCCCCCCCCCCCC/C=C/[C@@H](O)[C@H](CO)[N+](C)(C)C [TMS, N,N,N-trimethylsphingosine] | superior to sphingosine; also recorded: showed an advantage over DMS | inhibited immediately | completely abolishes superoxide production | profound effect | inhibited by TMS in a dose-dependent manner | 
Calphostin C |  |  |  |  |  | striking morphologic damage to EC's
